Columns and labels:
TDO (A172 cells) = biological target: T1, TDO (A172 cells) (Homo sapiens, UniProt P48775); test: TDO cell-based assay (A172), kynurenine production; conditions: A172 human glioblastoma cells, 500 μM L-Trp, 48 h, kynurenine by absorbance at 490 nm
T1 construct: This assay utilised cancer cells which expressed either TDO or IDO; host or cells: A172 human glioblastoma cells
Source text: (§1) Two different types of assay were employed: 1. A TDO and IDO biochemical coupled assay which utilised recombinantly produced and purified TDO and IDO enzymes in combination with the enzyme formamidase. This coupled enzyme system allowed conversion of N-formylkynurenine produced by TDO or IDO activity to kynurenine which was then quantified by fluorescence following addition of Erhlich's Reagent. 2. A cell-based assay for detecting the effect of test compounds on kynurenine production in two different cancer cell types. This assay utilised cancer cells which expressed either TDO or IDO and as such was used as a means of testing compound activity at these two enzymes in a cell-based context. The protocols for these are set out below.
(§2) A172 human glioblastoma (ATCC) were grown in DMEM+2 mM L-glutamine medium supplemented with 10% foetal bovine serum and SKOV-3 ovary adenocarcinoma (ATCC) cells were grown in McCoys 5A+L-glutamax medium supplemented with 15% foetal bovine serum. On the day of assay, cells were detached using trypsin-EDTA (0.25% v/v), re-suspended in assay media (RPMI 1640 phenol red free+L-glutamine supplemented with 10% dialysed foetal bovine serum). A172 cells were seeded at 30K cells per well and SKOV-3 cells at 40K cells per well into 96-well plates containing test samples/vehicle control together with 500 μM L-Trp. Cells were then incubated for 48 h at 37° C., 5% CO2. In SK-OV-3 cells, IFNγ was also added at 500 ng/ml for the 48 h incubation in order to induce expression of IDO. Plates were centrifuged and the supernatant was removed and incubated for 5 min in the presence of 1% Erhlich's reagent. Kynurenine levels were then quantified by measuring absorbance at 490 nm.

IDO (SKOV-3 cells) = biological target: T2, IDO (SKOV-3 cells) (Homo sapiens, UniProt P14902); test: IDO cell-based assay (SKOV-3, IFNγ-induced), kynurenine production; conditions: SKOV-3 ovary adenocarcinoma cells, IFNγ 500 ng/ml, 500 μM L-Trp, 48 h, kynurenine by absorbance at 490 nm
T2 construct: This assay utilised cancer cells which expressed either TDO or IDO; host or cells: SKOV-3 ovary adenocarcinoma cells, IFNγ-induced
Source text: as §1, §2

T1 sequence (P48775 whole entry): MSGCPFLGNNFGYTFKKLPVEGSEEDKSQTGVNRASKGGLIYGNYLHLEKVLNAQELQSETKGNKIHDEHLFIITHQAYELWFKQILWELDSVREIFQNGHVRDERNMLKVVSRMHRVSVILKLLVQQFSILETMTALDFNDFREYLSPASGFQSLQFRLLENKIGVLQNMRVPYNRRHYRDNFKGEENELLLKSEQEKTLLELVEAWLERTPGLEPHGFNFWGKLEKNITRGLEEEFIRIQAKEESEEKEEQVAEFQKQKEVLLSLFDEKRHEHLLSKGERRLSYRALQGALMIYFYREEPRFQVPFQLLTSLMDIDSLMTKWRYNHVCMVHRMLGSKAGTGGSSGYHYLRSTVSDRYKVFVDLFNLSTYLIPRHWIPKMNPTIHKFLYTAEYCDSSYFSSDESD
T2 sequence (P14902 whole entry): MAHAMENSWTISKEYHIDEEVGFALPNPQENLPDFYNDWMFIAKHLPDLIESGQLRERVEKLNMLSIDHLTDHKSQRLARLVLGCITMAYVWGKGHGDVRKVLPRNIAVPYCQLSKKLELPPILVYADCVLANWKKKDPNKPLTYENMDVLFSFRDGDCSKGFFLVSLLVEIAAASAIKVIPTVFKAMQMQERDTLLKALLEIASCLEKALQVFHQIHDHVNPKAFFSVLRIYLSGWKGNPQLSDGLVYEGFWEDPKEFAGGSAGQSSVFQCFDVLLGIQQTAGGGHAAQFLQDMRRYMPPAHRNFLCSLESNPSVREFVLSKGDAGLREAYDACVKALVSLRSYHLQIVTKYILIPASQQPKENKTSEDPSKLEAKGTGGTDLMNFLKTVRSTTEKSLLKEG

Row | TDO cellular assay (A172) pIC50 (TDO (A172 cells)) | IDO cellular assay (SKOV3) pIC50 (IDO (SKOV-3 cells)) | Structure (SMILES)
1 | − (− = pIC50 <4.50) | ++ (++ = pIC50 5.00-<5.50) | O=C(Nc1cccc2[nH]ncc12)c1cc2cc(F)ccc2[nH]1 [Compound 1]
2 | − (− = pIC50 <4.50) | ++ (++ = pIC50 5.00-<5.50) | O=C(Nc1cccc2cnccc12)c1cc2ccc(F)cc2[nH]1 [Compound 2]
3 | − (− = pIC50 <4.50) | +++ (+++ = pIC50 ≥5.50) | COc1ccc2cc(C(=O)Nc3cccc4ccccc34)[nH]c2c1 [Compound 3]
4 | + (+ = pIC50 4.50-<5.00) | ++ (++ = pIC50 5.00-<5.50) | CC(NC(=O)c1cc2cc(F)ccc2[nH]1)c1ccccc1 (centres unmarked) [Compound 4]
5 | − (− = pIC50 <4.50) | + (+ = pIC50 4.50-<5.00) | O=C(NCc1ccncc1)c1cc2cc(Cl)ccc2[nH]1 [Compound 5]
6 | + (+ = pIC50 4.50-<5.00) | + (+ = pIC50 4.50-<5.00) | O=C(NC1CCc2ccccc21)c1cc2ccccc2[nH]1 (centres unmarked) [Compound 6]
7 | − (− = pIC50 <4.50) | +++ (+++ = pIC50 ≥5.50) | COc1ccc2cc(C(=O)Nc3cccc4ncccc34)[nH]c2c1 [Compound 7]
8 | − (− = pIC50 <4.50) | + (+ = pIC50 4.50-<5.00) | CN(C)c1ncc2c(n1)CCC[C@H]2NC(=O)c1cc2cc(F)ccc2[nH]1 [Compound 8]
9 | − (− = pIC50 <4.50) | +++ (+++ = pIC50 ≥5.50) | O=C(NCc1ccc(Cl)cc1)c1cc2ccccc2[nH]1 [Compound 9]
10 | + (+ = pIC50 4.50-<5.00) | − (− = pIC50 <4.50) | O=C(NCc1ccccc1)c1cc2ccccc2[nH]1 [Compound 10]
11 | ++ (++ = pIC50 5.00-<5.50) | ++ (++ = pIC50 5.00-<5.50) | Cc1ccc(C(C)NC(=O)c2cc3ccccc3[nH]2)o1 (centres unmarked) [Compound 11]
12 | − (− = pIC50 <4.50) | +++ (+++ = pIC50 ≥5.50) | O=C(NC(c1ccccc1)C1CC1)c1cc2c(F)cccc2[nH]1 (centres unmarked) [Compound 12]
13 | − (− = pIC50 <4.50) | + (+ = pIC50 4.50-<5.00) | O=C(NCc1cccs1)c1cc2ccccc2[nH]1 [Compound 13]
14 | − (− = pIC50 <4.50) | ++ (++ = pIC50 5.00-<5.50) | CC(NC(=O)c1cc2ccccc2[nH]1)c1cccc(Cl)c1 (centres unmarked) [Compound 14]
15 | ++ (++ = pIC50 5.00-<5.50) | +++ (+++ = pIC50 ≥5.50) | Cc1ccc2[nH]c(C(=O)NC(C)c3cccc(F)c3)cc2c1 (centres unmarked) [Compound 15]
16 | + (+ = pIC50 4.50-<5.00) | +++ (+++ = pIC50 ≥5.50) | CC(NC(=O)c1cc2ccccc2[nH]1)c1ccc(Cl)cc1 (centres unmarked) [Compound 16]
17 | + (+ = pIC50 4.50-<5.00) | +++ (+++ = pIC50 ≥5.50) | CC(NC(=O)c1cc2ccccc2[nH]1)c1ccccc1 (centres unmarked) [Compound 17]
18 | − (− = pIC50 <4.50) | +++ (+++ = pIC50 ≥5.50) | COc1ccc(C(NC(=O)c2cc3ccccc3[nH]2)C2CC2)cc1 (centres unmarked) [Compound 18]
19 | − (− = pIC50 <4.50) | +++ (+++ = pIC50 ≥5.50) | CC(NC(=O)c1cc2ccccc2[nH]1)c1ccc(C(F)(F)F)cc1 (centres unmarked) [Compound 19]
20 | − (− = pIC50 <4.50) | + (+ = pIC50 4.50-<5.00) | Cc1cc(C)c2cc(C(=O)NCc3ccc(C)n3C)[nH]c2c1 [Compound 20]
21 | − (− = pIC50 <4.50) | ++ (++ = pIC50 5.00-<5.50) | CC(NC(=O)c1cc2c(Cl)c(Cl)ccc2[nH]1)c1cccnc1 (centres unmarked) [Compound 21]
22 | + (+ = pIC50 4.50-<5.00) | ++ (++ = pIC50 5.00-<5.50) | CC(NC(=O)c1cc2cc(F)ccc2[nH]1)c1cccc(F)c1 (centres unmarked) [Compound 22]
23 | − (− = pIC50 <4.50) | +++ (+++ = pIC50 ≥5.50) | CC(C)C(NC(=O)c1cc2cc(F)ccc2[nH]1)c1cccs1 (centres unmarked) [Compound 23]

Row | TDO cellular assay (A172) pIC50 (TDO (A172 cells)) | IDO cellular assay (SKOV3) pIC50 (IDO (SKOV-3 cells)) | Structure (SMILES)
24 | + (+ = pIC50 4.50-<5.00) | ++ (++ = pIC50 5.00-<5.50) | Cc1ccc(C(C)NC(=O)c2cc3cc(F)ccc3[nH]2)o1 (centres unmarked) [Compound 24]
25 | +++ (+++ = pIC50 ≥5.50) | +++ (+++ = pIC50 ≥5.50) | CC(NC(=O)c1cc2cc(Cl)ccc2[nH]1)c1ccccc1 (centres unmarked) [Compound 25]
26 | ++ (++ = pIC50 5.00-<5.50) | +++ (+++ = pIC50 ≥5.50) | Cc1ccc2[nH]c(C(=O)NC(C)c3ccccc3)cc2c1 (centres unmarked) [Compound 26]
27 | − (− = pIC50 <4.50) | ++ (++ = pIC50 5.00-<5.50) | Cc1ccc2[nH]c(C(=O)NCc3ccc(F)cc3)cc2c1 [Compound 27]
28 | − (− = pIC50 <4.50) | + (+ = pIC50 4.50-<5.00) | O=C(NCc1ccc(F)cc1)c1cc2cc(Cl)ccc2[nH]1 [Compound 28]
29 | − (− = pIC50 <4.50) | + (+ = pIC50 4.50-<5.00) | COc1ccc(CNC(=O)c2cc3cc(F)ccc3[nH]2)cc1 [Compound 29]
30 | − (− = pIC50 <4.50) | + (+ = pIC50 4.50-<5.00) | O=C(NCc1cccc(Cl)c1)c1cc2ccccc2[nH]1 [Compound 30]
31 | − (− = pIC50 <4.50) | + (+ = pIC50 4.50-<5.00) | O=C(NCc1ccc(F)cc1Cl)c1cc2ccccc2[nH]1 [Compound 31]
32 | − (− = pIC50 <4.50) | ++ (++ = pIC50 5.00-<5.50) | O=C(NCc1ccc(F)c(Cl)c1)c1cc2ccccc2[nH]1 [Compound 32]
33 | − (− = pIC50 <4.50) | ++ (++ = pIC50 5.00-<5.50) | O=C(NCc1cccc(Cl)c1)c1cc2cc(Cl)ccc2[nH]1 [Compound 33]
34 | − (− = pIC50 <4.50) | +++ (+++ = pIC50 ≥5.50) | O=C(NCc1ccc(Cl)cc1)c1cc2cc(Cl)ccc2[nH]1 [Compound 34]
35 | − (− = pIC50 <4.50) | + (+ = pIC50 4.50-<5.00) | O=C(NCc1ccc(F)c(Cl)c1)c1cc2cc(Cl)ccc2[nH]1 [Compound 35]
36 | + (+ = pIC50 4.50-<5.00) | +++ (+++ = pIC50 ≥5.50) | CC(NC(=O)c1cc2cc(Cl)ccc2[nH]1)c1ccc(F)cc1 (centres unmarked) [Compound 36]
37 | − (− = pIC50 <4.50) | + (+ = pIC50 4.50-<5.00) | CC(NC(=O)c1cc2ccccc2[nH]1)c1ccccn1 (centres unmarked) [Compound 37]
38 | + (+ = pIC50 4.50-<5.00) | ++ (++ = pIC50 5.00-<5.50) | Cc1c(C(=O)N[C@H](C)c2ccccc2)[nH]c2ccc(F)cc12 [Compound 38]
39 | − (− = pIC50 <4.50) | ++ (++ = pIC50 5.00-<5.50) | C[C@H](c1ccccc1)N(C)C(=O)c1cc2cc(F)ccc2[nH]1 [Compound 39]
40 | ++ (++ = pIC50 5.00-<5.50) | + (+ = pIC50 4.50-<5.00) | C[C@H](NC(=O)c1cc2cc(F)ccc2[nH]1)c1ccccc1 [Compound 40]
41 | − (− = pIC50 <4.50) | +++ (+++ = pIC50 ≥5.50) | O=C(Nc1cccc2ncccc12)c1cc2cc(F)ccc2[nH]1 [Compound 41]
42 | − (− = pIC50 <4.50) | ++ (++ = pIC50 5.00-<5.50) | CC(NC(=O)c1cc2cc(F)ccc2[nH]1)c1ccccn1 (centres unmarked) [Compound 42]
43 | ++ (++ = pIC50 5.00-<5.50) | +++ (+++ = pIC50 ≥5.50) | C[C@@H](NC(=O)c1cc2cc(F)ccc2[nH]1)c1ccccc1 [Compound 43]
44 | + (+ = pIC50 4.50-<5.00) | +++ (+++ = pIC50 ≥5.50) | C[C@@H](NC(=O)c1cc2ccc(F)cc2[nH]1)c1ccccc1 [Compound 44]
45 | − (− = pIC50 <4.50) | + (+ = pIC50 4.50-<5.00) | C[C@H](NC(=O)c1cc2ccc(F)cc2[nH]1)c1ccccc1 [Compound 45]
46 | − (− = pIC50 <4.50) | ++ (++ = pIC50 5.00-<5.50) | C[C@@H](NC(=O)c1cc2cc(F)ccc2n1C)c1ccccc1 [Compound 46]
